# Data: the Kinase Knowledgebase extract (Sharma et al. 2016)
# Molecular target: ROCK2 (human) (UniProt O75116)
# Assay: Inhibition of ROCK2 Kinase Activity
# Sequence of ROCK2 (human) (O75116 whole entry, looked up): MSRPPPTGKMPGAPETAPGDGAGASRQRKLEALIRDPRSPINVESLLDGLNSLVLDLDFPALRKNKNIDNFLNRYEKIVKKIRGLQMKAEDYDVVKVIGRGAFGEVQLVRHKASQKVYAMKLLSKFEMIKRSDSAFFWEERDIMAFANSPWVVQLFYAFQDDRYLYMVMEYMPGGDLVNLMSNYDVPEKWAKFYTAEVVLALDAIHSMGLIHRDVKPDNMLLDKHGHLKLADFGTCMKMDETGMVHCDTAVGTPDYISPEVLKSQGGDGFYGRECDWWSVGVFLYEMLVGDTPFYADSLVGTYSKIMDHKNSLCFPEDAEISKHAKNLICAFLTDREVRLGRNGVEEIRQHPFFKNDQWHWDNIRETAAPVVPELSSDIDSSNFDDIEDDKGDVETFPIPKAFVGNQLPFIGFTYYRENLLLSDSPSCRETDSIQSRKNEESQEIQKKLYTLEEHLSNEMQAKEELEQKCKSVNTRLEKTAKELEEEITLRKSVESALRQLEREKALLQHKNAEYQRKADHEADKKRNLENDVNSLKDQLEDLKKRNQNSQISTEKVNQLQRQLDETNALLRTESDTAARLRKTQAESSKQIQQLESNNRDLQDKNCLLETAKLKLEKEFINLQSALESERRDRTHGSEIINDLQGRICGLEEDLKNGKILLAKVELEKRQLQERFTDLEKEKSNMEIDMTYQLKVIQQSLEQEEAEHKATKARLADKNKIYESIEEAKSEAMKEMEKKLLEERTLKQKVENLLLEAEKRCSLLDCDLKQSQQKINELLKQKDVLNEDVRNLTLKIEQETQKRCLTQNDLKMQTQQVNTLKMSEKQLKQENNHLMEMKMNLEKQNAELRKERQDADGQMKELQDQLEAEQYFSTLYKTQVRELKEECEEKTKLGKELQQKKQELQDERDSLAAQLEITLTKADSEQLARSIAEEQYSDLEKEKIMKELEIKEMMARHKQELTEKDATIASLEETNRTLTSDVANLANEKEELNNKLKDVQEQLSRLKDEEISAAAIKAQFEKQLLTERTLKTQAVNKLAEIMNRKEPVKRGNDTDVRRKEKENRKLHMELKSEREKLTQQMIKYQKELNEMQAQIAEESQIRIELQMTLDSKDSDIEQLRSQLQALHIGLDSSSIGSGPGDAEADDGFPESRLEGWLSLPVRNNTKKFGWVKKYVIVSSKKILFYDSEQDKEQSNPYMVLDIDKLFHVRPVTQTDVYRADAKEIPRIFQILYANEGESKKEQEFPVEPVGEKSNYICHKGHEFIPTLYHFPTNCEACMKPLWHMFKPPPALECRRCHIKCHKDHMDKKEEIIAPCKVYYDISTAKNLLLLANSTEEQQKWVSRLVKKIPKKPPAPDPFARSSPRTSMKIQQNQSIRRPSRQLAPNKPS
row,IC50,SMILES
1,< 500 nM,NC(CC(=O)N1CCC(Cc2ccccc2)CC1)c1ccc(C(=O)Nc2ccncc2)cc1 (stereo unspecified)
2,500 to 5000 nM,CS(=O)(=O)NCCNC(=O)C(N)c1ccc(C(=O)Nc2ccncc2)cc1 (stereo unspecified)
3,< 500 nM,NC(CC(=O)N1CCN(c2ccccc2)CC1)c1ccc(C(=O)Nc2ccncc2)cc1 (stereo unspecified)
4,< 500 nM,CN(Cc1ccccc1)C(=O)C(N)c1ccc(C(=O)Nc2ccncc2)cc1 (stereo unspecified)
5,< 500 nM,N[C@H](CC(=O)N1CCC[C@H]1c1cccc(F)c1)c1ccc(C(=O)Nc2ccncc2)cc1
6,500 to 5000 nM,NC(C(=O)N1CCC(c2ccccc2)CC1)c1ccc(C(=O)Nc2ccncc2)cc1 (stereo unspecified)
7,< 500 nM,NC(CC(=O)N1CCCC1c1ccc(Cl)c(Cl)c1)c1ccc(C(=O)Nc2ccncc2)cc1 (stereo unspecified)
8,< 500 nM,NC(CC(=O)N1CCc2c([nH]c3ccccc23)C1)c1ccc(C(=O)Nc2ccncc2)cc1 (stereo unspecified)
9,500 to 5000 nM,CN(CC(N)c1ccc(C(=O)Nc2ccncc2)cc1)S(=O)(=O)c1ccccc1 (stereo unspecified)
10,500 to 5000 nM,CCNC(=O)C(N)c1ccc(C(=O)Nc2ccncc2)cc1 (stereo unspecified)
11,< 500 nM,CC1CCN(C(=O)C(N)c2ccc(C(=O)Nc3ccncc3)cc2)CC1 (stereo unspecified)
